Patent US8227497B2, “Dual-acting antihypertensive agents” (Theravance, Inc., priority 2008, dated 2012)

Key:
human AT1 receptor = target: T1, human AT1 receptor (Homo sapiens, UniProt P30556); experiment: AT1 radioligand binding assay (Assay 1); conditions: displacement of [Eu]AngII, membranes of CHO-K1 cells expressing human AT1 receptor; read-out: pKi at the AT1 receptor (converted)
T1 construct: expressed in transfected cells; membranes
T1 sequence (P30556 1-359): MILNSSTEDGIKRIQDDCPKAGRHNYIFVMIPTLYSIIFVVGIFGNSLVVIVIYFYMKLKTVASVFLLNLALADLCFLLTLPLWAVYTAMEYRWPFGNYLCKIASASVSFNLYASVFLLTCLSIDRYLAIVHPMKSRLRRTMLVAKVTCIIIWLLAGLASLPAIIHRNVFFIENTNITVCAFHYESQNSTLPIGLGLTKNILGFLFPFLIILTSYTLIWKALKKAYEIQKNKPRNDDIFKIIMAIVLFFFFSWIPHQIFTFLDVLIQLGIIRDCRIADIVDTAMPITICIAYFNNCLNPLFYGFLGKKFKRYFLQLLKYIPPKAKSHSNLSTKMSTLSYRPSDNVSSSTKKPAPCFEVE
Description: These in vitro assays were used to assess the ability of test compounds to bind to the AT1 and the AT2 receptors.
Chinese hamster ovary (CHO-K1) derived cell lines stably expressing the cloned human AT1 or AT2 receptors, respectively, were grown in HAM's-F12 medium supplemented with 10% fetal bovine serum, 10 μg/ml penicillin/streptomycin, and 500 μg/ml geneticin in a 5% CO2 humidified incubator at 37° C. AT2 receptor expressing cells were grown in the additional presence of 100 nM PD123,319 (AT2 antagonist). When cultures reached 80-95% confluence, the cells were washed thoroughly in PBS and lifted with 5 mM EDTA. Cells were pelleted by centrifugation and snap frozen in MeOH-dry ice and stored at −80° C. until further use.
For membrane preparation, cell pellets were resuspended in lysis buffer (25 mM Tris/HCl pH 7.5 at 4° C., 1 mM EDTA, and one tablet of Complete Protease Inhibitor Cocktail Tablets with 2 mM EDTA per 50 mL buffer (Roche cat. #1697498, Roche Molecular Biochemicals, Indianapolis, Ind.)) and homogenized using a tight-fitting Dounce glass homogenizer (10 strokes) on ice. The homogenate was centrifuged at 1000×g, the supernatant was collected and centrifuged at 20,000×g. […] Protein concentration of the membrane suspension was determined by the method described in Bradford (1976) Anal Biochem. 72:248-54. […]

NEP enzyme = target: T2, NEP enzyme (Homo sapiens, UniProt P08473); experiment: In vitro NEP enzyme inhibition assay (Assay 2); assay type: biochemical; conditions: fluorogenic peptide substrate, room temperature; read-out: pIC50 for the NEP enzyme (converted)
T2 construct: purchased R&D Systems, Minneapolis, Minn; 1182-ZN
T2 sequence (P08473 52-750 limits assumed): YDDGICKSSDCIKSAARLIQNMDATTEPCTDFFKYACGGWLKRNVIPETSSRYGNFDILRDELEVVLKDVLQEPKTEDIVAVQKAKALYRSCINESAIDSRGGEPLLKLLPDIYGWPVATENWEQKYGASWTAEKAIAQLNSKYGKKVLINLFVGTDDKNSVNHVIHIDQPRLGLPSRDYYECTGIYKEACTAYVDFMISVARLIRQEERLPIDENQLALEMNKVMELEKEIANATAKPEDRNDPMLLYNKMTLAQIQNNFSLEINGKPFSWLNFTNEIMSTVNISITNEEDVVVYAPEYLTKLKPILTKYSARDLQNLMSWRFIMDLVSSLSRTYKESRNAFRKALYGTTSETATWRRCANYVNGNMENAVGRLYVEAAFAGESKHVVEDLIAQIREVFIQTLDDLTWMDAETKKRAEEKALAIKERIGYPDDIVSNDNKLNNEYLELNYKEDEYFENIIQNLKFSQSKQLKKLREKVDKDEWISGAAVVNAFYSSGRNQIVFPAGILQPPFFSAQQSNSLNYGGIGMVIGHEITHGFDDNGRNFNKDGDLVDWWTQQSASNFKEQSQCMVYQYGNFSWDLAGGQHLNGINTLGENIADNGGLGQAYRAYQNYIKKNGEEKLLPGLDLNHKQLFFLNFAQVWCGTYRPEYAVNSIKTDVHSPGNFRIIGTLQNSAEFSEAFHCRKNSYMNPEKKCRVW
Description: The inhibitory activities of compounds at human and rat NEP and human ACE were determined using in vitro assays as described below.
Rat NEP was prepared from the kidneys of adult Sprague Dawley rats. Whole kidneys were washed in cold PBS and brought up in ice-cold lysis buffer (1% Triton X-114, 150 mM NaCl, 50 mM Tris pH 7.5; Bordier (1981) J. Biol. Chem. 256:1604-1607) in a ratio of 5 mL of buffer for every gram of kidney. Samples were homogenized using a polytron hand held tissue grinder on ice. Homogenates were centrifuged at 1000×g in a swinging bucket rotor for 5 minutes at 3° C. The pellet was resuspended in 20 mL of ice cold lysis buffer and incubated on ice for 30 minutes. […] Protein concentrations were quantitated using a BCA detection system with BSA as a standard. […]
The assays were performed in 384-well white opaque plates at room temperature using the respective fluorogenic peptides at a concentration of 10 μM in Assay Buffer (50 mM Tris/HCl at 25° C., 100 mM NaCl, 0.01% Tween-20, 1 μM Zn, 0.025% BSA). […] The rat NEP enzyme preparation was used at a concentration that yielded quantitative proteolysis of 3 μM of Mca-RRL within 20 minutes at room temperature. […]
Plates were read on a fluorometer with excitation and emission wavelengths set to 320 nm and 405 nm, respectively. […]

Ki (human AT1 receptor): < 100 nM | IC50 (NEP enzyme): ≤ 100 nM
SMILES: CCCCc1nc(Cl)c(CO)n1Cc1ccc(-c2ccccc2S(=O)(=O)NC(=O)CNC(=O)C(Cc2ccccc2)C(=O)NO)cc1 (centres unmarked) [Example 1, 2-Benzyl-N-{2-[4′-(2-butyl-4-chloro-5-hydroxymethylimidazol-1-ylmethyl)biphenyl-2-sulfonylamino]-2-oxoethyl}-N′-hydroxymalonamide.(C2HF3O2)]
